Results on 4 molecules are retold here after patent publication US12150998B2, “Bicyclic peptide ligands specific for P-selectin” (BicycleTx Limited, priority 2021, dated 2024).

The target in one experiment is T1, human P-Selectin protein (Homo sapiens, UniProt P16109).
T1 sequence (P16109 42-830): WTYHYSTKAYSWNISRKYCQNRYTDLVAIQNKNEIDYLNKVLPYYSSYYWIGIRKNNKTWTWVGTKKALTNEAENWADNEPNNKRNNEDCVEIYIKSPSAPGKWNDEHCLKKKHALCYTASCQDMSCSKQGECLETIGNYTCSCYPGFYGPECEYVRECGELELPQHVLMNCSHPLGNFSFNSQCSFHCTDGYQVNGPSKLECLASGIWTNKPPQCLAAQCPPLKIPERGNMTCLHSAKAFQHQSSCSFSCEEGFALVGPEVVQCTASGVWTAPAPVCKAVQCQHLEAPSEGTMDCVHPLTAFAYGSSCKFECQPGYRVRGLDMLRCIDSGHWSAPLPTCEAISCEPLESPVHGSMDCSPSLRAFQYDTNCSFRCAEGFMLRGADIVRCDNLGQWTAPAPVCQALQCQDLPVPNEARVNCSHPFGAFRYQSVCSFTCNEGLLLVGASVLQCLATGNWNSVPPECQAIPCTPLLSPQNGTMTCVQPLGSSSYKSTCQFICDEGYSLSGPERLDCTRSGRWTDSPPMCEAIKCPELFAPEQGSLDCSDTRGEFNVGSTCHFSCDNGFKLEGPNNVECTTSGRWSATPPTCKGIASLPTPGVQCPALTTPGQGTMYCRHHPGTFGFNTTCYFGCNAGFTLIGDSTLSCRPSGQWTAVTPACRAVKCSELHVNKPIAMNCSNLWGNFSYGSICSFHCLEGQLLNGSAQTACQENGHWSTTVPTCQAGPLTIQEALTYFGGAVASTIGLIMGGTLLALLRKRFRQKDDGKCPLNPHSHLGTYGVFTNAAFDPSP
As to the kind of experiment: SPR binding assay (Biacore). To be noted: Affinity KD determined by SPR, recombinant biotinylated human P-Selectin, 25° C. The method in brief:
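Biotinylated recombinant human P-Selectin was captured on a streptavidin chip (1000-1500 RU), and monomeric peptides were injected in PBS/0.05% Tween 20 with 0.5% DMSO at 25 °C (top 200 nM–50 μM, 2- or 3-fold series). Double-referenced data were fitted to a kinetic model with mass transport to give ka, kd and KD.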

The target of experiment [1] is T2, P-Selectin:PSGL1 interaction (Homo sapiens, UniProt P16109).
T2 construct: host or cells: HL-60 cells (ATCC, CCL-240) supply the PSGL-1 partner endogenously
T2 sequence (P16109 42-771 limits assumed): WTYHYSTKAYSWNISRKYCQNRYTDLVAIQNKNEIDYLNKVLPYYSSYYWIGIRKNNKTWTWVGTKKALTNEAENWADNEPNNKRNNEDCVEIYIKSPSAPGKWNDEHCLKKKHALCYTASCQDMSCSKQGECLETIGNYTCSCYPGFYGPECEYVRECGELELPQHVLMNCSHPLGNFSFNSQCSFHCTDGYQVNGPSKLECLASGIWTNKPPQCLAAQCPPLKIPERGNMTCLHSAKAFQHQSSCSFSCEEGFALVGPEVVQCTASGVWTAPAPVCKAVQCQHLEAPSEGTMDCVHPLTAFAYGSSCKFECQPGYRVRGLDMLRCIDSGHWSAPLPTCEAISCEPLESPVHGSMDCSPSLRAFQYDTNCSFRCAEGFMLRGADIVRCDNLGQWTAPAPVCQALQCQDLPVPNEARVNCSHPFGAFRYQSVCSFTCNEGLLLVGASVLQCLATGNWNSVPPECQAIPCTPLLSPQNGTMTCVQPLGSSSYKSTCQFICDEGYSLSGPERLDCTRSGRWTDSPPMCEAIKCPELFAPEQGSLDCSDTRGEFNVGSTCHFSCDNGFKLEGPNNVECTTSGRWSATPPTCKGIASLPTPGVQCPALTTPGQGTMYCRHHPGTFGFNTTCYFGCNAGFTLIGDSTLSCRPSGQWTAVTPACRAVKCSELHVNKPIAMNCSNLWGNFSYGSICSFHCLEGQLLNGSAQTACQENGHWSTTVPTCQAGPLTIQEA
Kind of experiment: Receptor ligand inhibition assay (P-Selectin binding to HL-60 cells). The note with it: for Inhibition at top concentration: 100−% response at top concentration. It counts as cell-based. The method, then:
Bicycle test samples, SelG1 (Crizanlizumab) were serially diluted maintaining 0.5% DMSO in assay buffer (25 mM HEPES, 121 mM NaCl, 5.4 mM KCl, 0.8 mM MgCl2, 1.8 mM CaCl2), 6 mM […], 5.5 mM glucose, 1% BSA, pH7.4) and transferred to 384 well clear bottom plates (Corning, 3712) with a final volume of 6 μL. […], of P-Selectin in imaging buffer (25 mM HEPES, 121 mM NaCl, 5.4 mM KCl, 0.8 mM MgCl2, 1.8 mM CaCl2), 6 mM […], 5.5 mM glucose, pH7.4) was added to give a 5 nM final concentration and incubated at room temperature for 15 minutes. HL-60 cells (ATCC, CCL-240) mixed with 1 μg/mL far red labelled wheat germ agglutinin (WGA, ThermoFisher W21404) and 1 μg/mL AlexaFluor 488-streptavidin (Invitrogen S11223) were added to the plate and incubated for 2 hours at room temperature in the absence of light. Staining and antibody binding were quantified by simultaneously scanning the microplates with 488 nm and 640 nm lasers on a mirrorball microplate cytometer, AF488 on FL2 triggering on AF647-WGA on FL4. Data was analysed in Dotmatics, using a four parameter logistic fit to generate IC50 values and % response. Percent inhibition was calculated using 100−% response at top concentration.

[2] abbreviates: 5 nM P-Selectin, HL-60 cells, geomean of n=3, read-out: IC50.

Like-named read-outs stand apart in the source and are kept apart here. Starred links: 1 amine or outer side, 2 acyl side, 3 side chain; linkers in the order of their positions; H or OH if unused. Positions of bridges follow the written chain, without caps; N, C: chain ends. Non-standard residues stand in square brackets, D forms with d. Chains are numbered I, II in the order given. No end group written: not given here. X3 = O=C(CCOCCN(CCOCCC(=O)NCCOCCOCCOCCOCCOCCOCCOCCOCCOCCOCCOCCOCCOCCOCCOCCOCCOCCOCCOCCOCCOCCOCCOCCn1cc(CCC(=O)[*:2])nn1)CCOCCC(=O)NCCOCCOCCOCCOCCOCCOCCOCCOCCOCCOCCOCCOCCOCCOCCOCCOCCOCCOCCOCCOCCOCCOCCOCCn1cc(CCC(=O)[*:3])nn1)NCCOCCOCCOCCOCCOCCOCCOCCOCCOCCOCCOCCOCCOCCOCCOCCOCCOCCOCCOCCOCCOCCOCCOCCn1cc(CCC(=O)[*:1])nn1; X1 = O=C(C[*:1])N1CCN(C(=O)C[*:2])CCN(C(=O)C[*:3])CC1; 1Nal = N[C@@H](Cc1cccc2ccccc12)C(=O)O

Usually Kd stands for the equilibrium constant for the complex coming apart. One may read the IC50 as the concentration needed to halve the response being measured. By Inhibition is commonly meant the share of the control response that was lost under treatment. Read a high Inhibition as a strong effect. As to `CC(C)C[C@@H]1NC(=O)[C@H](CO)NC(=O)[C@@H]2CCCN2C(=O)[C@H](C(C)C)NC(=O)[C@H](CC(=O)O)NC(=O)[C@@H]2CSCC(=O)N3CCN(CCN(CC3)C(=O)CSC[C@@H](C(=O)N[C@@H](C)C(=O)N[C@@H](CCCCNC(=O)CCc3cn(CCOCCOCCOCCOCCOCCOCCOCCOCCOCCOCCOCCOCCOCCOCCOCCOCCOCCOCCOCCOCCOCCOCCOCCNC(=O)CCOCC(COCCC(=O)NCCOCCOCCOCCOCCOCCOCCOCCOCCOCCOCCOCCOCCOCCOCCOCCOCCOCCOCCOCCOCCOCCOCCOCCn4cc(CCC(=O)NCCCC[C@H](NC(=O)[C@H](C)NC(=O)[C@@H]5CSCC(=O)N6CCN7CCN(CC6)C(=O)CSC[C@H](NC(=O)[C@H](Cc6c[nH]c8ccccc68)NC(=O)[C@H](CC(=O)O)NC(=O)[C@H](C)NC(=O)[C@H](CC(=O)O)NC(=O)[C@@H](NC(=O)[C@H](C)N)CSCC7=O)C(=O)N[C@@H](CC(=O)O)C(=O)N[C@@H](C(C)C)C(=O)N6CCC[C@H]6C(=O)N[C@@H](CO)C(=O)N[C@@H](CC(C)C)C(=O)N6CCC[C@H]6C(=O)N5)C(N)=O)nn4)(COCCC(=O)NCCOCCOCCOCCOCCOCCOCCOCCOCCOCCOCCOCCOCCOCCOCCOCCOCCOCCOCCOCCOCCOCCOCCOCCn4cc(CCC(=O)NCCCC[C@H](NC(=O)[C@H](C)NC(=O)[C@@H]5CSCC(=O)N6CCN7CCN(CC6)C(=O)CSC[C@H](NC(=O)[C@H](Cc6c[nH]c8ccccc68)NC(=O)[C@H](CC(=O)O)NC(=O)[C@H](C)NC(=O)[C@H](CC(=O)O)NC(=O)[C@@H](NC(=O)[C@H](C)N)CSCC7=O)C(=O)N[C@@H](CC(=O)O)C(=O)N[C@@H](C(C)C)C(=O)N6CCC[C@H]6C(=O)N[C@@H](CO)C(=O)N[C@@H](CC(C)C)C(=O)N6CCC[C@H]6C(=O)N5)C(N)=O)nn4)COCCC(=O)NCCOCCOCCOCCOCCOCCOCCOCCOCCOCCOCCOCCOCCOCCOCCOCCOCCOCCOCCOCCOCCOCCOCCOCCn4cc(CCC(=O)NCCCC[C@H](NC(=O)[C@H](C)NC(=O)[C@@H]5CSCC(=O)N6CCN7CCN(CC6)C(=O)CSC[C@H](NC(=O)[C@H](Cc6c[nH]c8ccccc68)NC(=O)[C@H](CC(=O)O)NC(=O)[C@H](C)NC(=O)[C@H](CC(=O)O)NC(=O)[C@@H](NC(=O)[C@H](C)N)CSCC7=O)C(=O)N[C@@H](CC(=O)O)C(=O)N[C@@H](C(C)C)C(=O)N6CCC[C@H]6C(=O)N[C@@H](CO)C(=O)N[C@@H](CC(C)C)C(=O)N6CCC[C@H]6C(=O)N5)C(N)=O)nn4)nn3)C(N)=O)NC(=O)[C@@H]3CCCN3C1=O)C(=O)CSC[C@H](NC(=O)[C@H](C)N)C(=O)N[C@@H](CC(=O)O)C(=O)N[C@@H](C)C(=O)N[C@@H](CC(=O)O)C(=O)N[C@@H](Cc1c[nH]c3ccccc13)C(=O)N2` [BCY12261], the Kd at human P-Selectin protein worked out at 0.019 nM. The same molecule had an IC50 in experiment [1] of 10.4 nM. Besides, the “Inhibition at top concentration” value in experiment [1] (geomean of n=3) was 68%.
The corresponding values for `CC(C)C[C@@H]1NC(=O)[C@H](CO)NC(=O)[C@@H]2CCCN2C(=O)[C@H](C(C)C)NC(=O)[C@H](CC(=O)O)NC(=O)[C@@H]2CSCC(=O)N3CCN(CCN(CC3)C(=O)CSC[C@@H](C(=O)N[C@@H](C)C(=O)N[C@@H](CCCCNC(=O)CCc3cn(CCOCCOCCOCCOCCOCCOCCOCCOCCOCCOCCOCCOCCOCCOCCOCCOCCOCCOCCOCCOCCOCCOCCOCCNC(=O)CCOCC(COCCC(=O)NCCOCCOCCOCCOCCOCCOCCOCCOCCOCCOCCOCCOCCOCCOCCOCCOCCOCCOCCOCCOCCOCCOCCOCCn4cc(CCC(=O)NCCCC[C@H](NC(=O)[C@H](C)NC(=O)[C@@H]5CSCC(=O)N6CCN7CCN(CC6)C(=O)CSC[C@H](NC(=O)[C@H](Cc6cccc8ccccc68)NC(=O)[C@H](CC(=O)O)NC(=O)[C@H](C)NC(=O)[C@H](CC(=O)O)NC(=O)[C@@H](NC(=O)[C@H](C)N)CSCC7=O)C(=O)N[C@@H](CC(=O)O)C(=O)N[C@@H](C(C)C)C(=O)N6CCC[C@H]6C(=O)N[C@@H](CO)C(=O)N[C@@H](CC(C)C)C(=O)N6CCC[C@H]6C(=O)N5)C(N)=O)nn4)(COCCC(=O)NCCOCCOCCOCCOCCOCCOCCOCCOCCOCCOCCOCCOCCOCCOCCOCCOCCOCCOCCOCCOCCOCCOCCOCCn4cc(CCC(=O)NCCCC[C@H](NC(=O)[C@H](C)NC(=O)[C@@H]5CSCC(=O)N6CCN7CCN(CC6)C(=O)CSC[C@H](NC(=O)[C@H](Cc6cccc8ccccc68)NC(=O)[C@H](CC(=O)O)NC(=O)[C@H](C)NC(=O)[C@H](CC(=O)O)NC(=O)[C@@H](NC(=O)[C@H](C)N)CSCC7=O)C(=O)N[C@@H](CC(=O)O)C(=O)N[C@@H](C(C)C)C(=O)N6CCC[C@H]6C(=O)N[C@@H](CO)C(=O)N[C@@H](CC(C)C)C(=O)N6CCC[C@H]6C(=O)N5)C(N)=O)nn4)COCCC(=O)NCCOCCOCCOCCOCCOCCOCCOCCOCCOCCOCCOCCOCCOCCOCCOCCOCCOCCOCCOCCOCCOCCOCCOCCn4cc(CCC(=O)NCCCC[C@H](NC(=O)[C@H](C)NC(=O)[C@@H]5CSCC(=O)N6CCN7CCN(CC6)C(=O)CSC[C@H](NC(=O)[C@H](Cc6cccc8ccccc68)NC(=O)[C@H](CC(=O)O)NC(=O)[C@H](C)NC(=O)[C@H](CC(=O)O)NC(=O)[C@@H](NC(=O)[C@H](C)N)CSCC7=O)C(=O)N[C@@H](CC(=O)O)C(=O)N[C@@H](C(C)C)C(=O)N6CCC[C@H]6C(=O)N[C@@H](CO)C(=O)N[C@@H](CC(C)C)C(=O)N6CCC[C@H]6C(=O)N5)C(N)=O)nn4)nn3)C(N)=O)NC(=O)[C@@H]3CCCN3C1=O)C(=O)CSC[C@H](NC(=O)[C@H](C)N)C(=O)N[C@@H](CC(=O)O)C(=O)N[C@@H](C)C(=O)N[C@@H](CC(=O)O)C(=O)N[C@@H](Cc1cccc3ccccc13)C(=O)N2` [BCY12262] are 0.017 nM, 3.29 nM and 68%.
For the molecule “I: ACDADWCDVPSLPCAK-NH2 / II: ACDADWCDVPSLPCAK-NH2 / III: ACDADWCDVPSLPCAK-NH2 (linker I:2-I:7-I:14, II:2-II:7-II:14, III:2-III:7-III:14 via X1; linker I:16-II:16-III:16 via X3) [BCY12259]”, at human P-Selectin protein, the Kd stood at 0.233 nM. In experiment [1] (setting [2]), the IC50 worked out at 14.4 nM. Also, in experiment [1] (geomean of n=3), the “Inhibition at top concentration” value was 61%.
On to “I: ACDAD[1Nal]CDVPSLPCAK-NH2 / II: ACDAD[1Nal]CDVPSLPCAK-NH2 / III: ACDAD[1Nal]CDVPSLPCAK-NH2 (linker I:2-I:7-I:14, II:2-II:7-II:14, III:2-III:7-III:14 via X1; linker I:16-II:16-III:16 via X3) [BCY12260]”, for which, on human P-Selectin protein, the Kd was determined as 0.109 nM. Moreover, the IC50 in experiment [1] (setting [2]) stood at 9.62 nM. The “Inhibition at top concentration” value in experiment [1] (geomean of n=3) came to 64%.
